1 compound from patent publication US20230414626A1, “INDUCTION OF FERROPTOSIS FOR CANCER THERAPY” (Memorial Sloan Kettering Cancer Center, priority 2020, published 2023) can be followed below.

The structures appear in SMILES notation.

This assay relates to PTEN-defective PC-3 prostate cancer xenograft tumors. Nature of the assay: In vivo xenograft mouse model, PC-3. Conditions: PC-3 xenograft, nu/nu mice; IKE 50 mg/kg daily i.p.; CCI-779 2 mg/kg daily i.p. The procedure: FIG. 6 A-F. Combination of mTORC1 inhibition with ferroptosis induction leads to tumor regression in vivo. (A) CRISPR/Cas9-mediated, Dox-induced GPX4 knockout (GPX4-iKO) in BT474 cells, monitored by western blot. (B) Images of resected tumors from mice xenografted with GPX4-iKO BT474 cells. Groups of mice were treated with CCI-779 and/or Dox as indicated (n=6 per group). See Methods for detail. (C) Representative haematoxylin and eosin (H&E) and immunostaining images of GPX4, Ki67, PTGS2 and pS235/236 S6, all counterstained with haematoxylin (blue), are shown from sections of xenografted tumors. Scale bar, 50 μm. (D) Growth curves of BT474 tumors of each group. Data are plotted as mean±s.d., n=6, on the linear scale for actual tumor size (upper panel) or the log 2 scale for the fold change of tumors (bottom panel). (E) Growth curves of PC-3 tumors of each group (n=6), on the linear scale for actual tumor size (upper panel) or the log 2 scale for the fold change of tumor size (bottom panel). […]
FIG. 13 A-E. Combination of mTORC1 inhibition with ferroptosis induction leads to tumor regression. […] (B) BT474 tumor volume was measured every day for each mouse. […] (E) PC-3 tumor volume was measured every day for each mouse. […]
For PC-3 tumor models, male athymic nu/nu mice aged 5 to 6 weeks were injected in the right flank with 5×10^6 PC-3 cells. Tumors were measured with callipers daily. […]

As to `CC(C)Oc1ccc(C(=O)Cn2ccnc2)cc1-n1c(CN2CCN(C(=O)COc3ccc(Cl)cc3)CC2)nc2ccccc2c1=O` [IKE, imidazole ketone erastin], the tumor growth result was “no effects on tumor growth”.
